Reference: patent US8192962B2, “Processes for detecting toxic substances” (Daikin Industries, Ltd., priority 2001, dated 2012)

Test system: DNA repair protein genes
Experiment: DNA chip mRNA expression in yeast, DNA repair protein genes (Table 3)
Type: cell-based, Saccharomyces cerevisiae S288C
Details: incubated two hours, concentrations as in the 1st table
How it was run: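 First, S288C yeast grown in YPD at 25° C. are dosed in log phase with one toxicant (growth-inhibiting, not lethal) for 2 h. Next, total RNA is extracted and poly(A) mRNA isolated and reverse-transcribed with Cy3/Cy5-dUTP. Finally, whole-genome chip fluorescence is read relative to unexposed cells.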

Structure (SMILES): CCCCCCCCCCCCc1ccc(S(=O)(=O)[O-])cc1.[Na+] [(17), sodium dodecylbenzosulfonate]
- The level of expressed mRNA in the presence of chemical substance/The level of expressed mRNA in the absence of chemical substance (yeast gene YAL015C): 1.1
- The level of expressed mRNA in the presence of chemical substance/The level of expressed mRNA in the absence of chemical substance (yeast gene YAR007C): 0.8
- The level of expressed mRNA in the presence of chemical substance/The level of expressed mRNA in the absence of chemical substance (yeast gene YBL019W): 0.8
- The level of expressed mRNA in the presence of chemical substance/The level of expressed mRNA in the absence of chemical substance (yeast gene YBR073W): 0.7
- The level of expressed mRNA in the presence of chemical substance/The level of expressed mRNA in the absence of chemical substance (yeast gene YBR272C): 1.1
- The level of expressed mRNA in the presence of chemical substance/The level of expressed mRNA in the absence of chemical substance (yeast gene YCR014C): 1.0
- The level of expressed mRNA in the presence of chemical substance/The level of expressed mRNA in the absence of chemical substance (yeast gene YDL017W): 0.8
- The level of expressed mRNA in the presence of chemical substance/The level of expressed mRNA in the absence of chemical substance (yeast gene YDL059C): 0.8
- The level of expressed mRNA in the presence of chemical substance/The level of expressed mRNA in the absence of chemical substance (yeast gene YDL200C): 0.9
- The level of expressed mRNA in the presence of chemical substance/The level of expressed mRNA in the absence of chemical substance (yeast gene YDR054C): 0.8
- The level of expressed mRNA in the presence of chemical substance/The level of expressed mRNA in the absence of chemical substance (yeast gene YDR369C): 0.8
- The level of expressed mRNA in the presence of chemical substance/The level of expressed mRNA in the absence of chemical substance (yeast gene YEL019C): 0.8
- The level of expressed mRNA in the presence of chemical substance/The level of expressed mRNA in the absence of chemical substance (yeast gene YEL037C): 1.0
- The level of expressed mRNA in the presence of chemical substance/The level of expressed mRNA in the absence of chemical substance (yeast gene YER162C): 1.2
- The level of expressed mRNA in the presence of chemical substance/The level of expressed mRNA in the absence of chemical substance (yeast gene YFL014W): 1.5
- The level of expressed mRNA in the presence of chemical substance/The level of expressed mRNA in the absence of chemical substance (yeast gene YGL058W): 1.1
- The level of expressed mRNA in the presence of chemical substance/The level of expressed mRNA in the absence of chemical substance (yeast gene YGL091C): 1.4
- The level of expressed mRNA in the presence of chemical substance/The level of expressed mRNA in the absence of chemical substance (yeast gene YGL127C): 1.0
- The level of expressed mRNA in the presence of chemical substance/The level of expressed mRNA in the absence of chemical substance (yeast gene YGL163C): 0.9
- The level of expressed mRNA in the presence of chemical substance/The level of expressed mRNA in the absence of chemical substance (yeast gene YGL249W): 1.0
- The level of expressed mRNA in the presence of chemical substance/The level of expressed mRNA in the absence of chemical substance (yeast gene YGR180C): 1.0
- The level of expressed mRNA in the presence of chemical substance/The level of expressed mRNA in the absence of chemical substance (yeast gene YGR231C): 1.0
- The level of expressed mRNA in the presence of chemical substance/The level of expressed mRNA in the absence of chemical substance (yeast gene YGR258C): 1.0
- The level of expressed mRNA in the presence of chemical substance/The level of expressed mRNA in the absence of chemical substance (yeast gene YHR164C): 0.8
- The level of expressed mRNA in the presence of chemical substance/The level of expressed mRNA in the absence of chemical substance (yeast gene YIL036W): 1.1
- The level of expressed mRNA in the presence of chemical substance/The level of expressed mRNA in the absence of chemical substance (yeast gene YIL072W): 1.0
- The level of expressed mRNA in the presence of chemical substance/The level of expressed mRNA in the absence of chemical substance (yeast gene YIL143C): 0.9
- The level of expressed mRNA in the presence of chemical substance/The level of expressed mRNA in the absence of chemical substance (yeast gene YIL153W): 0.9
- The level of expressed mRNA in the presence of chemical substance/The level of expressed mRNA in the absence of chemical substance (yeast gene YIR002C): 1.1
- The level of expressed mRNA in the presence of chemical substance/The level of expressed mRNA in the absence of chemical substance (yeast gene YJL026W): 1.4
- The level of expressed mRNA in the presence of chemical substance/The level of expressed mRNA in the absence of chemical substance (yeast gene YJR046W): 0.7
- The level of expressed mRNA in the presence of chemical substance/The level of expressed mRNA in the absence of chemical substance (yeast gene YJR052W): 1.0
- The level of expressed mRNA in the presence of chemical substance/The level of expressed mRNA in the absence of chemical substance (yeast gene YKL145W): 1.1
- The level of expressed mRNA in the presence of chemical substance/The level of expressed mRNA in the absence of chemical substance (yeast gene YLR103C): 1.1
- The level of expressed mRNA in the presence of chemical substance/The level of expressed mRNA in the absence of chemical substance (yeast gene YLR233C): 1.0
- The level of expressed mRNA in the presence of chemical substance/The level of expressed mRNA in the absence of chemical substance (yeast gene YLR288C): 1.2
- The level of expressed mRNA in the presence of chemical substance/The level of expressed mRNA in the absence of chemical substance (yeast gene YML032C): 1.0
- The level of expressed mRNA in the presence of chemical substance/The level of expressed mRNA in the absence of chemical substance (yeast gene YML058W): 1.3
- The level of expressed mRNA in the presence of chemical substance/The level of expressed mRNA in the absence of chemical substance (yeast gene YMR035W): 2.2
- The level of expressed mRNA in the presence of chemical substance/The level of expressed mRNA in the absence of chemical substance (yeast gene YMR072W): 0.9
- The level of expressed mRNA in the presence of chemical substance/The level of expressed mRNA in the absence of chemical substance (yeast gene YMR096W): 2.2
- The level of expressed mRNA in the presence of chemical substance/The level of expressed mRNA in the absence of chemical substance (yeast gene YMR284W): 1.1
- The level of expressed mRNA in the presence of chemical substance/The level of expressed mRNA in the absence of chemical substance (yeast gene YNL213C): 0.9
- The level of expressed mRNA in the presence of chemical substance/The level of expressed mRNA in the absence of chemical substance (yeast gene YNL250W): 1.0
- The level of expressed mRNA in the presence of chemical substance/The level of expressed mRNA in the absence of chemical substance (yeast gene YNL261W): 0.8
- The level of expressed mRNA in the presence of chemical substance/The level of expressed mRNA in the absence of chemical substance (yeast gene YNL312W): 1.2
- The level of expressed mRNA in the presence of chemical substance/The level of expressed mRNA in the absence of chemical substance (yeast gene YOL043C): 1.0
- The level of expressed mRNA in the presence of chemical substance/The level of expressed mRNA in the absence of chemical substance (yeast gene YOR005C): 1.1
- The level of expressed mRNA in the presence of chemical substance/The level of expressed mRNA in the absence of chemical substance (yeast gene YOR386W): 2.1
- The level of expressed mRNA in the presence of chemical substance/The level of expressed mRNA in the absence of chemical substance (yeast gene YPL022W): 0.9
- The level of expressed mRNA in the presence of chemical substance/The level of expressed mRNA in the absence of chemical substance (yeast gene YPL164C): 1.0
- The level of expressed mRNA in the presence of chemical substance/The level of expressed mRNA in the absence of chemical substance (yeast gene YPL194W): 1.0
- The level of expressed mRNA in the presence of chemical substance/The level of expressed mRNA in the absence of chemical substance (yeast gene YPR025C): 1.1
